Experiments:
cardiac beta-1-receptors [1] = target: T1, cardiac beta-1-receptors (Felis catus, UniProt Q9TST6); test: Beta-sympatholytic action: inhibition of isoproterenol-induced tachycardia in narcotized cats; format: in vivo; conditions: for ED50: cat, iv, read-out: Beta-sympatholytic action ED50%: dose which inhibits the isoproterenol-induced tachycardia by 50%; for R.A. (relative activity) / factor by which doses blocking the cardiac beta-1-receptors are smaller than those of propranolol: cats; for R.A. (relative activity): Propranolol = 1.00; for factor by which doses blocking the cardiac beta-1-receptors are smaller than those of propranolol: versus propranolol
T1 construct: increases the pulse rate of narcotized cats (weighing 2-4 kg) by an average of 40%; from tissue; host or cells: heart of living narcotized cats (in vivo, endogenous receptor)
T1 sequence (Q9TST6 whole entry): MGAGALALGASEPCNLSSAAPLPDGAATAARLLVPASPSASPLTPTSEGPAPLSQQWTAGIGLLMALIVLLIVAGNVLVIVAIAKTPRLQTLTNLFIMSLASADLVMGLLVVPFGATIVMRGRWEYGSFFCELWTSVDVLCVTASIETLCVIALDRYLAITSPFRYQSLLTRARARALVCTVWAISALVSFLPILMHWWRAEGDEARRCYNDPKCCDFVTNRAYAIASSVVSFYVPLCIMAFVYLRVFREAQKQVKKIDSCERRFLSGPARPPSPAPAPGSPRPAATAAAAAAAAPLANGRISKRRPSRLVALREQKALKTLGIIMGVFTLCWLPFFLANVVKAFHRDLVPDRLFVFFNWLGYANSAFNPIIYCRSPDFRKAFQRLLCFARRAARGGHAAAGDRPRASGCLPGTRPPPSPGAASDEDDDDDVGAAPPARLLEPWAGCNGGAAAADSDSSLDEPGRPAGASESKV
Description: The beta-sympatholytic action of the compounds was tested on cats. […] The following test methods were used:
Beta-sympatholytic agents inhibit the tachycardia.
^1 Inhibition of isoproterenolinduced tachycardia in cats under
hexobarbital narcosis. Compound administered intravenously.

in vivo = conditions: mouse, read-out: Acute toxicity LD50
cardiac beta-1-receptors [2] = conditions: mouse, in vivo

Row | Structure (SMILES) | ED50 (cardiac beta-1-receptors [1]) [mg/kg] | R.A. (relative activity) (cardiac beta-1-receptors [1]) | LD50 (in vivo) [mg/kg] | Therapeutic range relative (cardiac beta-1-receptors [2]) | factor by which doses blocking the cardiac beta-1-receptors are smaller than those of propranolol (cardiac beta-1-receptors [1])
1 | C#CC(C)NCC(O)COc1ccccc1/C=C/c1nnc(C)s1 (stereo not shown) [Compound 6, 2-Methyl-5-[2-(2-hydroxy-3-(1-butyn-3-ylamino)-propoxy)styryl]-1,3,4-thiadiazole] | 0.0111 | 12.70 | 261 | 30.68 | –
2 | Cc1nnc(/C=C/c2ccccc2OCC(O)CNC(C)C)s1 (stereo not shown) [Compound 3, 2-Methyl-5-[2-(2-hydroxy-3-isopropylamino-propoxy)-styryl]-1,3,4-thiadiazol] | 0.01 | 14.10 | 83 | 10.84 | –
3 | Cc1nnc(/C=C/c2ccccc2OCC(O)CNC(C)(C)C)s1 (stereo not shown) [Compound 5, 2-Methyl-5-[2-(2-hydroxy-3-tert.-butylamino-propoxy)-styryl]-1,3,4-thiadiazole] | – | 25.22 | – | 13.73 | 25
4 | Cc1nnc(/C=C/c2ccccc2OCC(O)CNC2CC2)s1 (stereo not shown) [Compound 4, 2-Methyl-5-[2-(2-hydroxy-3-cyclopropylamino-propoxy)-styryl]-1,3,4-thiadiazole] | 0.012 | 11.75 | 69.4 | 7.55 | 12

Source: US4263430A, “2-Methyl-5-(2-hydroxystyryl)-1,3,4-thiadiazole” (BASF Aktiengesellschaft, priority 1978, dated 1981)
